{
  "source": "PubChem BioAssay (NCI)",
  "note": "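Values below derive from 48-hour exposures of cells grown in 96-well plates, with endpoints linearly interpolated between the two concentrations bracketing the appropriate inhibition level. TGI: total growth inhibition.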",
  "data": [
    {"system": "SF-539 CNS", "experiment": "NCI-60 cell line screen, 48 h", "units": {"TGI": "µM"}, "values": [
      {"smiles": "COc1cc(C2c3cc4c(cc3[C@H](OCCN(C)C)[C@@H]3COC(=O)C23)OCO4)cc(OC)c1O", "note": "(stereo not given in full)", "TGI": 0.449},
      {"smiles": "CCCCn1c(C)c(C(=O)OCC)c2cc(OCc3ccc(C(=O)Nn4c(C)ccc4C)cc3)c(Br)cc21", "TGI": "> 100"},
      {"smiles": "O=C(CC(=O)N(C(=O)c1ccccc1)c1ccc(Cl)cc1)N/N=C\\c1cc(N=Nc2ccccc2Cl)ccc1O", "TGI": "> 100"},
      {"smiles": "Cc1cccc2c(N)c3cccc(C(=O)NCCCNCCN)c3nc12", "TGI": 9.93},
      {"smiles": "CN1CCC(OC(=O)Oc2ccccc2)(c2ccccc2)CC1", "TGI": 26.5},
      {"smiles": "CCOC(=O)/C(O)=C(/C=NC(=S)c1ccncc1)C(=O)OCC", "TGI": "> 100"}
    ]},
    {"system": "COLO 205 colon", "experiment": "NCI-60 cell line screen, 48 h", "units": {"TGI": "µM"}, "values": [
      {"smiles": "Cc1nc(N)c(N2CCNCC2)c(=O)[nH]1", "TGI": "> 100"},
      {"smiles": "Brc1ccc2c(-c3nc(-c4c[nH]c5ccc(Br)cc45)cs3)c[nH]c2c1", "TGI": 7.06},
      {"smiles": "O=C1NNC(=O)C2C3c4ccccc4C(c4ccccc43)C12", "note": "(stereo not given)", "TGI": "> 100"},
      {"smiles": "O=c1[nH]nc(-c2cccc(Br)c2)[nH]1", "TGI": "> 100"},
      {"smiles": "CCOC(=O)C(Cl)(NC(=O)c1ccc(F)cc1)C(F)(F)F", "note": "(stereo not given)", "TGI": "> 100"},
      {"smiles": "COc1ccccc1N1C(=O)/C(=C\\c2cccc(Oc3ccccc3)c2)SC1c1ccccc1", "note": "(stereo not given)", "TGI": 55},
      {"smiles": "Cc1ccc(S(=O)(=O)OC2C3OC(C)(C)OC3OC2C(c2cc(O)c3c(c2O)C(=O)c2ccccc2C3=O)c2cc(O)c3c(c2O)C(=O)c2ccccc2C3=O)cc1", "note": "(stereo not given)", "TGI": "> 10"},
      {"smiles": "N#Cc1nc(COCCOCc2ccccc2)oc1N", "TGI": "> 100"},
      {"smiles": "CC1CN=C(Nc2ccc(S(N)(=O)=O)cc2)S1", "note": "(stereo not given)", "TGI": "> 100"},
      {"smiles": "COC1(OC)C2(Cl)CCC1(Cl)C(OC(C)=O)C2", "note": "(stereo not given)", "TGI": "> 100"},
      {"smiles": "O=P(O)(O)CN1CCN(CP(=O)(O)O)CCN(CP(=O)(O)O)CCN(CP(=O)(O)O)CC1", "TGI": "> 100"},
      {"smiles": "CC(C)NC(=O)OCc1c(COC(=O)NC(C)C)c(-c2ccc[n+](COC(=O)CC(C)(C)C)c2)n2c1CCC2", "TGI": "> 100"},
      {"smiles": "C=C(C)[C@@H](C(=O)OC)N1C(=O)c2ccccc2C1=O", "TGI": "> 100"},
      {"smiles": "CO/N=C(\\C(=O)Nc1cncs1)c1csc(NC(c2ccccc2)(c2ccccc2)c2ccccc2)n1", "TGI": "> 10"},
      {"smiles": "CCCN(CCCCC(NC(C)=O)C(=O)NCc1ccccc1)C(=O)N(CCCl)N=O", "note": "(stereo not given)", "TGI": "> 100"},
      {"smiles": "O=C(CNc1ccc(Cl)cc1)Nn1c(-c2ccccc2)nc2ccccc2c1=O", "TGI": 18.6},
      {"smiles": "COc1cc(C2c3cc4c(cc3[C@H](OCCN(C)C)[C@@H]3COC(=O)C23)OCO4)cc(OC)c1O", "note": "(stereo not given in full)", "TGI": 9.05},
      {"smiles": "CCCCn1c(C)c(C(=O)OCC)c2cc(OCc3ccc(C(=O)Nn4c(C)ccc4C)cc3)c(Br)cc21", "TGI": "> 100"},
      {"smiles": "O=C(CC(=O)N(C(=O)c1ccccc1)c1ccc(Cl)cc1)N/N=C\\c1cc(N=Nc2ccccc2Cl)ccc1O", "TGI": "> 100"},
      {"smiles": "Cc1cccc2c(N)c3cccc(C(=O)NCCCNCCN)c3nc12", "TGI": 20.1},
      {"smiles": "CN1CCC(OC(=O)Oc2ccccc2)(c2ccccc2)CC1", "TGI": 25.8},
      {"smiles": "CCOC(=O)/C(O)=C(/C=NC(=S)c1ccncc1)C(=O)OCC", "TGI": "> 100"}
    ]},
    {"system": "OVCAR-3 ovarian", "experiment": "NCI-60 cell line screen, 48 h", "units": {"TGI": "µM"}, "values": [
      {"smiles": "Cc1nc(N)c(N2CCNCC2)c(=O)[nH]1", "TGI": "> 100"},
      {"smiles": "Brc1ccc2c(-c3nc(-c4c[nH]c5ccc(Br)cc45)cs3)c[nH]c2c1", "TGI": 28},
      {"smiles": "O=C1NNC(=O)C2C3c4ccccc4C(c4ccccc43)C12", "note": "(stereo not given)", "TGI": "> 100"},
      {"smiles": "O=c1[nH]nc(-c2cccc(Br)c2)[nH]1", "TGI": "> 100"},
      {"smiles": "CCOC(=O)C(Cl)(NC(=O)c1ccc(F)cc1)C(F)(F)F", "note": "(stereo not given)", "TGI": "> 100"},
      {"smiles": "COc1ccccc1N1C(=O)/C(=C\\c2cccc(Oc3ccccc3)c2)SC1c1ccccc1", "note": "(stereo not given)", "TGI": "> 100"},
      {"smiles": "Cc1ccc(S(=O)(=O)OC2C3OC(C)(C)OC3OC2C(c2cc(O)c3c(c2O)C(=O)c2ccccc2C3=O)c2cc(O)c3c(c2O)C(=O)c2ccccc2C3=O)cc1", "note": "(stereo not given)", "TGI": "> 10"},
      {"smiles": "N#Cc1nc(COCCOCc2ccccc2)oc1N", "TGI": "> 100"},
      {"smiles": "CC1CN=C(Nc2ccc(S(N)(=O)=O)cc2)S1", "note": "(stereo not given)", "TGI": "> 100"},
      {"smiles": "COC1(OC)C2(Cl)CCC1(Cl)C(OC(C)=O)C2", "note": "(stereo not given)", "TGI": "> 100"},
      {"smiles": "O=P(O)(O)CN1CCN(CP(=O)(O)O)CCN(CP(=O)(O)O)CCN(CP(=O)(O)O)CC1", "TGI": "> 100"},
      {"smiles": "CC(C)NC(=O)OCc1c(COC(=O)NC(C)C)c(-c2ccc[n+](COC(=O)CC(C)(C)C)c2)n2c1CCC2", "TGI": "> 100"},
      {"smiles": "C=C(C)[C@@H](C(=O)OC)N1C(=O)c2ccccc2C1=O", "TGI": "> 100"},
      {"smiles": "CO/N=C(\\C(=O)Nc1cncs1)c1csc(NC(c2ccccc2)(c2ccccc2)c2ccccc2)n1", "TGI": "> 10"},
      {"smiles": "CCCN(CCCCC(NC(C)=O)C(=O)NCc1ccccc1)C(=O)N(CCCl)N=O", "note": "(stereo not given)", "TGI": "> 100"},
      {"smiles": "O=C(CNc1ccc(Cl)cc1)Nn1c(-c2ccccc2)nc2ccccc2c1=O", "TGI": 25.8},
      {"smiles": "COc1cc(C2c3cc4c(cc3[C@H](OCCN(C)C)[C@@H]3COC(=O)C23)OCO4)cc(OC)c1O", "note": "(stereo not given in full)", "TGI": 4.08},
      {"smiles": "CCCCn1c(C)c(C(=O)OCC)c2cc(OCc3ccc(C(=O)Nn4c(C)ccc4C)cc3)c(Br)cc21", "TGI": "> 100"},
      {"smiles": "O=C(CC(=O)N(C(=O)c1ccccc1)c1ccc(Cl)cc1)N/N=C\\c1cc(N=Nc2ccccc2Cl)ccc1O", "TGI": "> 100"},
      {"smiles": "Cc1cccc2c(N)c3cccc(C(=O)NCCCNCCN)c3nc12", "TGI": 63.2},
      {"smiles": "CN1CCC(OC(=O)Oc2ccccc2)(c2ccccc2)CC1", "TGI": "> 100"},
      {"smiles": "CCOC(=O)/C(O)=C(/C=NC(=S)c1ccncc1)C(=O)OCC", "TGI": "> 28.8"}
    ]}
  ]
}
